Measurements from patent US8192962B2, “Processes for detecting toxic substances” (Daikin Industries, Ltd., priority 2001, dated 2012).

System: Transport facilitation protein genes
Assay: DNA chip mRNA expression in yeast, transport facilitation protein genes (Table 5)
Format: cell-based, Saccharomyces cerevisiae S288C
Description: Yeast (Saccharomyces cerevisiae S288C (α SUC2mal mel gap2 CUP1)) were incubated at 25° C. on YPD medium (yeast extract 1%, polypepton 2%, glucose 2%). One of toxic chemical substances was added to the cells at logarithmic growth phase, and the cells were further incubated for two hours. Cells were cultured without any chemical substance in the same condition, and were used as control. Concentrations of the chemical substances were defined to inhibit the growth of the yeast but not lead to death.
After completion of the incubation, the culture was centrifuged to collect the cells. To the cells, sodium acetate buffer (50 mM sodium acetate, 10 mM EDTA, 1% SDS) was added, and the mixture was shaken at 65° C. for five minutes, followed by returning to room temperature, and obtaining the supernatant, of which the procedures were repeated two times. To the supernatant, ½ amount of a solution of phenol/chloroform was added, and the mixture was centrifuged to give a supernatant, which was added with an equal amount of chloroform, and the mixture was centrifuged to give a supernatant. To the supernatant, an equal amount of isopropanol containing 0.3 M sodium acetate was added, and the mixture was allowed to stand at room temperature for 30 minutes, after which the mixture was centrifuged to give a sediment of the whole RNAs. Seventy % ethanol was added to the sediment, and the mixture was again centrifuged to give a sediment, which was then dried and dissolved in water. mRNA was isolated from the whole RNAs as followings. In view of the fact that a poly A chain is attached to the 3′ terminus of mRNA, a polynucleotide having a poly T structure which was immobilized on the surface of latex beads was used to trap the mRNA, and then the mRNA was washed and eluted with spine column (Oligotex-dT30<Super>mRNA Purification Kit, Takara). Reverse transcription of the mRNA was conducted with a reverse transcriptase (Super Script II Reverse Transcriptase; catalogue No. 18064-014, GibcoBRL) using fluorescence-labeled nucleotides to give cDNAs that were introduced with Cy3-dUTP or Cy5-dUTP during the reverse transcription.
The labeled cDNAs were dissolved in TE buffer (10mM Tris-HCl/1 mM EDTA, pH8.0), and the solution was dropped on the DNA chip containing the whole genes of yeast (DNA Chip Research Inc. Japan) so that the cDNAs were hybridized on the DNA chip at 65° C. for over 12 hours. The fluoresces intensity of the DNA chip was read with a scanner, and the ratio relative to the fluorescence intensity resulting from the absence of chemical substance was estimated as the following, which is shown in Tables 1 to 9: […]

## N#Cc1c(Cl)c(Cl)c(Cl)c(C#N)c1Cl [(9), 2,4,5,6-tetrachloro-1,3-benzenedicarbonitrile]
Yeast gene YGR260W
  The level of expressed mRNA in the presence of chemical substance/The level of expressed mRNA in the absence of chemical substance: 0.3
Yeast gene YGR281W
  The level of expressed mRNA in the presence of chemical substance/The level of expressed mRNA in the absence of chemical substance: 2.7
Yeast gene YHL035C
  The level of expressed mRNA in the presence of chemical substance/The level of expressed mRNA in the absence of chemical substance: 0.6
Yeast gene YHL040C
  The level of expressed mRNA in the presence of chemical substance/The level of expressed mRNA in the absence of chemical substance: 1.1
Yeast gene YHL047C
  The level of expressed mRNA in the presence of chemical substance/The level of expressed mRNA in the absence of chemical substance: 1.2
Yeast gene YHR026W
  The level of expressed mRNA in the presence of chemical substance/The level of expressed mRNA in the absence of chemical substance: 1.1
Yeast gene YHR092C
  The level of expressed mRNA in the presence of chemical substance/The level of expressed mRNA in the absence of chemical substance: 0.2
Yeast gene YHR094C
  The level of expressed mRNA in the presence of chemical substance/The level of expressed mRNA in the absence of chemical substance: 0.3
Yeast gene YHR175W
  The level of expressed mRNA in the presence of chemical substance/The level of expressed mRNA in the absence of chemical substance: 0.6
Yeast gene YIL006W
  The level of expressed mRNA in the presence of chemical substance/The level of expressed mRNA in the absence of chemical substance: 0.9
Yeast gene YIL022W
  The level of expressed mRNA in the presence of chemical substance/The level of expressed mRNA in the absence of chemical substance: 1.1
Yeast gene YIL056W
  The level of expressed mRNA in the presence of chemical substance/The level of expressed mRNA in the absence of chemical substance: 1.2
Yeast gene YIL088C
  The level of expressed mRNA in the presence of chemical substance/The level of expressed mRNA in the absence of chemical substance: 1.0
Yeast gene YJL034W
  The level of expressed mRNA in the presence of chemical substance/The level of expressed mRNA in the absence of chemical substance: 2.8
Yeast gene YJL212C
  The level of expressed mRNA in the presence of chemical substance/The level of expressed mRNA in the absence of chemical substance: 1.1
Yeast gene YJL219W
  The level of expressed mRNA in the presence of chemical substance/The level of expressed mRNA in the absence of chemical substance: 4.0
Yeast gene YJR077C
  The level of expressed mRNA in the presence of chemical substance/The level of expressed mRNA in the absence of chemical substance: 0.4
Yeast gene YJR106W
  The level of expressed mRNA in the presence of chemical substance/The level of expressed mRNA in the absence of chemical substance: 2.0
Yeast gene YJR121W
  The level of expressed mRNA in the presence of chemical substance/The level of expressed mRNA in the absence of chemical substance: 0.8
Yeast gene YKL016C
  The level of expressed mRNA in the presence of chemical substance/The level of expressed mRNA in the absence of chemical substance: 1.3
Yeast gene YKL146W
  The level of expressed mRNA in the presence of chemical substance/The level of expressed mRNA in the absence of chemical substance: 4.6
Yeast gene YKR039W
  The level of expressed mRNA in the presence of chemical substance/The level of expressed mRNA in the absence of chemical substance: 1.9
Yeast gene YKR067W
  The level of expressed mRNA in the presence of chemical substance/The level of expressed mRNA in the absence of chemical substance: 1.6
Yeast gene YKR105C
  The level of expressed mRNA in the presence of chemical substance/The level of expressed mRNA in the absence of chemical substance: 1.0
Yeast gene YLL028W
  The level of expressed mRNA in the presence of chemical substance/The level of expressed mRNA in the absence of chemical substance: 1.2
Yeast gene YLR081W
  The level of expressed mRNA in the presence of chemical substance/The level of expressed mRNA in the absence of chemical substance: 0.1
Yeast gene YLR295C
  The level of expressed mRNA in the presence of chemical substance/The level of expressed mRNA in the absence of chemical substance: 1.4
Yeast gene YLR348C
  The level of expressed mRNA in the presence of chemical substance/The level of expressed mRNA in the absence of chemical substance: 2.1
Yeast gene YLR378C
  The level of expressed mRNA in the presence of chemical substance/The level of expressed mRNA in the absence of chemical substance: 1.1
Yeast gene YMR011W
  The level of expressed mRNA in the presence of chemical substance/The level of expressed mRNA in the absence of chemical substance: 0.0
Yeast gene YMR162C
  The level of expressed mRNA in the presence of chemical substance/The level of expressed mRNA in the absence of chemical substance: 0.7
Yeast gene YMR203W
  The level of expressed mRNA in the presence of chemical substance/The level of expressed mRNA in the absence of chemical substance: 0.7
Yeast gene YNL055C
  The level of expressed mRNA in the presence of chemical substance/The level of expressed mRNA in the absence of chemical substance: 1.1
Yeast gene YNL259C
  The level of expressed mRNA in the presence of chemical substance/The level of expressed mRNA in the absence of chemical substance: 1.6
Yeast gene YNR072W
  The level of expressed mRNA in the presence of chemical substance/The level of expressed mRNA in the absence of chemical substance: 0.7
Yeast gene YOL119C
  The level of expressed mRNA in the presence of chemical substance/The level of expressed mRNA in the absence of chemical substance: 5.0
Yeast gene YOL156W
  The level of expressed mRNA in the presence of chemical substance/The level of expressed mRNA in the absence of chemical substance: 2.3
Yeast gene YOL163W
  The level of expressed mRNA in the presence of chemical substance/The level of expressed mRNA in the absence of chemical substance: 7.5
Yeast gene YOR035C
  The level of expressed mRNA in the presence of chemical substance/The level of expressed mRNA in the absence of chemical substance: 1.3
Yeast gene YOR130C
  The level of expressed mRNA in the presence of chemical substance/The level of expressed mRNA in the absence of chemical substance: 2.0
Yeast gene YOR153W
  The level of expressed mRNA in the presence of chemical substance/The level of expressed mRNA in the absence of chemical substance: 3.2
Yeast gene YOR270C
  The level of expressed mRNA in the presence of chemical substance/The level of expressed mRNA in the absence of chemical substance: 0.4
Yeast gene YOR273C
  The level of expressed mRNA in the presence of chemical substance/The level of expressed mRNA in the absence of chemical substance: 0.6
Yeast gene YOR316C
  The level of expressed mRNA in the presence of chemical substance/The level of expressed mRNA in the absence of chemical substance: 1.6
Yeast gene YOR332W
  The level of expressed mRNA in the presence of chemical substance/The level of expressed mRNA in the absence of chemical substance: 1.8
Yeast gene YOR348C
  The level of expressed mRNA in the presence of chemical substance/The level of expressed mRNA in the absence of chemical substance: 0.5
Yeast gene YPL036W
  The level of expressed mRNA in the presence of chemical substance/The level of expressed mRNA in the absence of chemical substance: 0.1
Yeast gene YPL134C
  The level of expressed mRNA in the presence of chemical substance/The level of expressed mRNA in the absence of chemical substance: 0.6
Yeast gene YPL265W
  The level of expressed mRNA in the presence of chemical substance/The level of expressed mRNA in the absence of chemical substance: 0.2
Yeast gene YPL271W
  The level of expressed mRNA in the presence of chemical substance/The level of expressed mRNA in the absence of chemical substance: 0.6
Yeast gene YPR192W
  The level of expressed mRNA in the presence of chemical substance/The level of expressed mRNA in the absence of chemical substance: 0.7
Yeast gene YPR194C
  The level of expressed mRNA in the presence of chemical substance/The level of expressed mRNA in the absence of chemical substance: 0.5
